Results from patent publication US8110571B2, “Benzimidazole and benzothiazole derivatives, method for preparing same, use thereof as drugs, pharmaceutical compositions and novel use especially as c-MET inhibitors” (Aventis Pharma S.A., priority 2005, dated 2012).
Structures can show the parent of a compound that is named as a salt.

Row | melting point | SMILES
1 | 195 °C | O=C(NCCCN1CCCC1=O)Nc1nc2ccc(OS(=O)(=O)c3c(Cl)cccc3Cl)cc2s1 (as salt: benzenesulfonate) [Example 65, 2-({[3-(2-oxopyrrolidin-1-yl)propyl]carbamoyl}amino)-1,3-benzothiazol-6-yl 2,6-dichlorobenzenesulfonate]
2 | 154.5 °C | CN(C)c1ccc(CNC(=O)Nc2nc3ccc(OS(=O)(=O)c4c(Cl)cccc4Cl)cc3s2)cc1 (as salt: benzenesulfonate) [Example 66, 2-({[4-(dimethylamino)benzyl]carbamoyl}amino)-1,3-benzothiazol-6-yl 2,6-dichlorobenzenesulfonate]
3 | 93 °C | O=C(NCCCN1CCN(Cc2c(F)cccc2Cl)CC1)Nc1nc2ccc(OS(=O)(=O)c3c(Cl)cccc3Cl)cc2s1 (as salt: benzenesulfonate) [Example 67, 2-[({3-[4-(2-chloro-6-fluorobenzyl)piperazin-1-yl]propyl}carbamoyl)amino]-1,3-benzothiazol-6-yl 2,6-dichlorobenzenesulfonate]
4 | 218 °C | O=C(NCCCN1CCN(Cc2ccccc2)CC1)Nc1nc2ccc(OS(=O)(=O)c3c(Cl)cccc3Cl)cc2s1 (as salt: benzenesulfonate) [Example 68, 2-({[3-(4-benzylpiperazin-1-yl)propyl]carbamoyl}amino)-1,3-benzothiazol-6-yl 2,6-dichlorobenzenesulfonate]
5 | 96.5 °C | CN1CCN(CCCNC(=O)Nc2nc3ccc(OS(=O)(=O)c4c(Cl)cccc4Cl)cc3s2)CC1 (as salt: benzenesulfonate) [Example 69, 2-({[3-(4-methylpiperazin-1-yl)propyl]carbamoyl}amino)-1,3-benzothiazol-6-yl 2,6-dichlorobenzenesulfonate]
6 | 177 °C | O=C(NCc1ccc(N2CCOCC2)cc1)Nc1nc2ccc(OS(=O)(=O)c3c(Cl)cccc3Cl)cc2s1 (as salt: benzenesulfonate) [Example 70, 2-{[(4-morpholin-4-ylbenzyl)carbamoyl]amino}-1,3-benzothiazol-6-yl 2,6-dichlorobenzenesulfonate]
7 | 163 °C | O=C(Nc1nc2ccc(OS(=O)(=O)c3c(Cl)cccc3Cl)cc2s1)NC1CCCCCC1 (as salt: benzenesulfonate) [Example 72, 2-[(cycloheptylcarbamoyl)amino]-1,3-benzothiazol-6-yl 2,6-dichlorobenzenesulfonate]
8 | 249 °C | O=C(Nc1nc2ccc(OS(=O)(=O)c3c(Cl)cccc3Cl)cc2s1)NC1CCCC1 (as salt: benzenesulfonate) [Example 73, 2-[(cyclopentylcarbamoyl)amino]-1,3-benzothiazol-6-yl 2,6-dichlorobenzenesulfonate]
9 | 169 °C | CC(C)NC(=O)Nc1nc2ccc(OS(=O)(=O)c3c(Cl)cccc3Cl)cc2s1 (as salt: benzenesulfonate) [Example 74, 2-[(isopropylcarbamoyl)amino]-1,3-benzothiazol-6-yl 2,6-dichlorobenzenesulfonate]

The remaining lines, values behind:

Row | SMILES | melting point
10 | O=C(CCCC1CCNCC1)Nc1nc2ccc(OS(=O)(=O)c3c(Cl)cccc3Cl)cc2s1 (as salt: benzenesulfonate) [Example 48, 2-[(4-Piperidin-4-ylbutanoyl)amino]-1,3-benzothiazol-6-yl 2,6-dichlorobenzenesulfonate] | 114 °C
11 | O=C(NCCCN1CCOCC1)Nc1nc2ccc(OS(=O)(=O)c3c(Cl)cccc3Cl)cc2s1 (as salt: benzenesulfonate) [Example 53, 2-{[(3-morpholin-4-ylpropyl)carbamoyl]amino}-1,3-benzothiazol-6-yl 2,6-dichlorobenzenesulfonate] | 94 °C
12 | CN(CCCNC(=O)Nc1nc2ccc(OS(=O)(=O)c3c(Cl)cccc3Cl)cc2s1)c1ccccc1 (as salt: benzenesulfonate) [Example 54, 2-[({3-[methyl(phenyl)amino]propyl}carbamoyl)amino]-1,3-benzothiazol-6-yl 2,6-dichlorobenzenesulfonate] | 68 °C
13 | O=C(NCCN1CCC(Cc2ccccc2)CC1)Nc1nc2ccc(OS(=O)(=O)c3c(Cl)cccc3Cl)cc2s1 (as salt: benzenesulfonate) [Example 55, 2-({[2-(4-benzylpiperidin-1-yl)ethyl]carbamoyl}amino)-1,3-benzothiazol-6-yl 2,6-dichlorobenzenesulfonate] | 95 °C
14 | O=C(NCCN1CCCC1)Nc1nc2ccc(OS(=O)(=O)c3c(Cl)cccc3Cl)cc2s1 (as salt: benzenesulfonate) [Example 56, 2-{[(2-pyrrolidin-1-ylethyl)carbamoyl]amino}-1,3-benzothiazol-6-yl 2,6-dichlorobenzenesulfonate] | 99 °C
15 | O=C(Nc1nc2ccc(OS(=O)(=O)c3c(Cl)cccc3Cl)cc2s1)N1CCC[C@@H]1CN1CCCC1 (as salt: benzenesulfonate) [Example 57, 2-({[(2R)-2-(pyrrolidin-1-ylmethyl)pyrrolidin-1-yl]carbonyl}amino)-1,3-benzothiazol-6-yl 2,6-dichlorobenzenesulfonate] | 204 °C
16 | O=C(Nc1nc2ccc(OS(=O)(=O)c3c(Cl)cccc3Cl)cc2s1)N1CCC[C@H]1CN1CCCC1 (as salt: benzenesulfonate) [Example 58, 2-({[(2S)-2-(pyrrolidin-1-ylmethyl)pyrrolidin-1-yl]carbonyl}amino)-1,3-benzothiazol-6-yl 2,6-dichlorobenzenesulfonate] | 210 °C
17 | O=C(NCCCN1CCCC1)Nc1nc2ccc(OS(=O)(=O)c3c(Cl)cccc3Cl)cc2s1 (as salt: benzenesulfonate) [Example 59, 2-{[(3-pyrrolidin-1-ylpropyl)carbamoyl]amino}-1,3-benzothiazol-6-yl 2,6-dichlorobenzenesulfonate] | 96 °C
18 | CN1CCN(CCNC(=O)Nc2nc3ccc(OS(=O)(=O)c4c(Cl)cccc4Cl)cc3s2)CC1 (as salt: benzenesulfonate) [Example 60, 2-({[2-(4-methylpiperazin-1-yl)ethyl]carbamoyl}amino)-1,3-benzothiazol-6-yl 2,6-dichlorobenzenesulfonate] | 100 °C
19 | CN1CCCC1CCNC(=O)Nc1nc2ccc(OS(=O)(=O)c3c(Cl)cccc3Cl)cc2s1 (stereo not shown) (as salt: benzenesulfonate) [Example 61, 2-({[2-(1-methylpyrrolidin-2-yl)ethyl]carbamoyl}amino)-1,3-benzothiazol-6-yl 2,6-dichlorobenzenesulfonate] | 178 °C
20 | CN(C)CCCNC(=O)Nc1nc2ccc(OS(=O)(=O)c3c(Cl)cccc3Cl)cc2s1 (as salt: benzenesulfonate) [Example 62, 2-({[3-(dimethylamino)propyl]carbamoyl}amino)-1,3-benzothiazol-6-yl 2,6-dichlorobenzenesulfonate] | 100 °C
21 | CC1CCCC(C)N1CCNC(=O)Nc1nc2ccc(OS(=O)(=O)c3c(Cl)cccc3Cl)cc2s1 (stereo not shown) (as salt: benzenesulfonate) [Example 63, 2-({[2-(2,6-dimethylpiperidin-1-yl)ethyl]carbamoyl}amino)-1,3-benzothiazol-6-yl 2,6-dichlorobenzenesulfonate] | 122 °C
22 | O=C(NCCN1CCCCC1)Nc1nc2ccc(OS(=O)(=O)c3c(Cl)cccc3Cl)cc2s1 (as salt: benzenesulfonate) [Example 64, 2-{[(2-piperidin-1-ylethyl)carbamoyl]amino}-1,3-benzothiazol-6-yl 2,6-dichlorobenzenesulfonate] | 172 °C
